In US9023789B2, “Amylin analogs and pharmaceutical compositions thereof” (Novo Nordisk A/S, priority 2012, dated 2015):
Where two headings read alike, the source gives them in different places. Numbered stars: 1 amine (or outer) side, 2 acyl side, 3 side chain; on linkers, the order of the positions; unused ones are H or OH. Bridge positions count the residues as written; N and C are the ends. Side chains are listed from the residue outwards. Peptide text beside a SMILES is read from it. * marks the point of attachment. C20 diacid = O=C(O)CCCCCCCCCCCCCCCCCCC(=O)*; γGlu = O=C(O)[C@H](CCC(=O)[*:2])N[*:1]

How the values were obtained:
[1] = biological target: T1, human amylin receptor (membranes from Amylin 3(a)/CRE-luc cells) (Homo sapiens, UniProt O60896+P30988); assay: ASSAY (V) binding to the human amylin receptor (SPA, 125I-rat amylin);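 note: competition binding of cell membranes (35 ng/µL) mixed with SPA beads in 384-well plates at 40 µL total volume, read by scintillation counting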
T1 construct: expressed in transfected cells
T1 sequence (P30988 25-474): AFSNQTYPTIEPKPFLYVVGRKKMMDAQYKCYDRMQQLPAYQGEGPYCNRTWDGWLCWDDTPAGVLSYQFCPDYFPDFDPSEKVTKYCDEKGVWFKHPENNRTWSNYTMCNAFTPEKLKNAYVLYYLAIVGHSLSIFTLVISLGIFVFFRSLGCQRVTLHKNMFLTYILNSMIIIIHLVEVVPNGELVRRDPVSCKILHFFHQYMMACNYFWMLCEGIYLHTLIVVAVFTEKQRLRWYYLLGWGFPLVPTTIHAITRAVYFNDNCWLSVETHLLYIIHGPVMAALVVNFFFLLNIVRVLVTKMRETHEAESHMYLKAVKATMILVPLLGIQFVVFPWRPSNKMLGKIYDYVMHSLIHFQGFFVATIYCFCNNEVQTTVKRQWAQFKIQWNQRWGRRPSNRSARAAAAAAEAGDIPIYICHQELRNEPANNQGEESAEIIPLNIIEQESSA
T1 sequence (O60896 24-148 partner): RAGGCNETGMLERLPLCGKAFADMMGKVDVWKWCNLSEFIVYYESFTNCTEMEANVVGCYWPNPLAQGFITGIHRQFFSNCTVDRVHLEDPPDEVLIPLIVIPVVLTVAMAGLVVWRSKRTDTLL

[2] = biological target: T2, human amylin 3(a) receptor (human calcitonin receptor + RAMP-3) in BHK570 cells (Homo sapiens, UniProt O60896+P30988); assay: ASSAY (II)a functional assay, human amylin receptor (CRE luciferase); assay type: cell-based
T2 construct: expressed in transfected cells
Outline: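 Functional agonism was measured by CRE-luciferase reporter luminescence in BHK cells bearing calcitonin receptor, or calcitonin receptor plus RAMP-3 as the amylin 3(a) receptor. Stimulation lasted 3 hours at 37° C.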

rat calcitonin receptor = biological target: T3, rat calcitonin receptor (Rattus norvegicus, UniProt P32214); assay: ASSAY (VIII) binding to the rat calcitonin receptor; conditions: Table 7, read-out: rCTR bind IC50
T3 construct: expressed in transfected cells; host or cells: BHK tk'ts 13 (transient, FuGENE 6), membranes
T3 sequence (P32214 25-479 isoform P32214-2 limits assumed): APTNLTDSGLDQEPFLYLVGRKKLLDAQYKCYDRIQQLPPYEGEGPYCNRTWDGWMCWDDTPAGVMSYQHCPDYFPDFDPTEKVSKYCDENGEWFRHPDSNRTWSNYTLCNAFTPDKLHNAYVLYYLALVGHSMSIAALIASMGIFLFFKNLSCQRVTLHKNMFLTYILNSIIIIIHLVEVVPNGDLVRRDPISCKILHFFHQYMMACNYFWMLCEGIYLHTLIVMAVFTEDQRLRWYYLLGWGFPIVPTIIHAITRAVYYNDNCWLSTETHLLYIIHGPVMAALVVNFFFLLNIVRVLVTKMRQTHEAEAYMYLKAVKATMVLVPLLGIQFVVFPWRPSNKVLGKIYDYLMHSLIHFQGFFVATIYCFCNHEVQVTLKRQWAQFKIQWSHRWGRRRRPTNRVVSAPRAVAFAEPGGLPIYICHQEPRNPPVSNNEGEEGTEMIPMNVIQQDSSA
Outline: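 Receptor source: membranes from transiently transfected BHK tk′ts 13 cells expressing rat calcitonin receptor, collected roughly 48 hours after transfection.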

[3] = ASSAY (IV) determination of solubility; assay type: physicochemical
Outline: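 UPLC read-out of polypeptide concentration after centrifugation. Samples: aqueous polypeptide stock ([…]) + 100 mM buffer 1:1, glycylglycine pH 3.0–5.0 or bistrispropane pH 6.0–8.0; 18 h, RT.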

[4] = Table 5, selectivity, hCTR bind IC50 / hAmylin-R bind IC50
[5] = Table 5a, selectivity, hCTR bind IC50 / hAmylin-R bind IC50
[6] = Table 5b, selectivity, hCTR bind IC50 / hAmylin-R bind IC50
[7] = Table 5c, selectivity, hCTR bind IC50 / hAmylin-R bind IC50
[8] = Table 7, human binding selectivity, included for comparison
[9] = Table 7a (preferred compounds), human binding selectivity, included for comparison
[10] = ratio of human calcitonin receptor binding IC50 to human amylin receptor binding IC50
[11] = hCTR funct. EC50 divided by hAmylin-R funct. EC50
[12] = hCTR funct. EC50 over hAmylin-R funct. EC50
[13] = human functional selectivity: hCTR funct. EC50 / hAmylin-R funct. EC50
[14] = bistrispropane buffer, pH 6.5, read-out: Solubility pH 6.5 Concentration
[15] = bistrispropane buffer, pH 7.5, read-out: Solubility pH 7.5 Concentration
[16] = bistrispropane buffer, pH 6.0, read-out: Solubility pH 6.0 Concentration
[17] = bistrispropane buffer, pH 7.0, read-out: Solubility pH 7.0 Concentration
[18] = bistrispropane buffer, pH 8.0, read-out: Solubility pH 8.0 Concentration
[19] = glycylglycine buffer, pH 3.0, read-out: Solubility pH 3.0 Concentration
[20] = glycylglycine buffer, pH 4.0, read-out: Solubility pH 4.0 Concentration
[21] = glycylglycine buffer, pH 5.0, read-out: Solubility pH 5.0 Concentration

SMILES: CC[C@H](C)[C@H](NC(=O)[C@H](C)NC(=O)CNC(=O)[C@H](Cc1ccccc1)NC(=O)[C@H](CC(N)=O)NC(=O)[C@@H]1CCCN1C(=O)[C@H](CO)NC(=O)[C@H](CO)NC(=O)[C@H](Cc1c[nH]cn1)NC(=O)[C@H](CCCNC(=N)N)NC(=O)[C@H](CC(C)C)NC(=O)[C@H](Cc1ccccc1)NC(=O)[C@H](CCCNC(=N)N)NC(=O)[C@H](C)NC(=O)[C@H](CC(C)C)NC(=O)[C@H](CCCNC(=N)N)NC(=O)[C@H](CCC(N)=O)NC(=O)[C@@H](NC(=O)[C@H](C)NC(=O)[C@@H]1CSSC[C@H](NC(=O)[C@@H](N)CCCCNC(=O)CC[C@H](NC(=O)CCCCCCCCCCCCCCCCCCC(=O)O)C(=O)O)C(=O)N[C@@H](CC(N)=O)C(=O)N[C@@H]([C@@H](C)O)C(=O)N[C@@H](C)C(=O)N[C@@H]([C@@H](C)O)C(=O)N1)[C@@H](C)O)C(=O)N1CCC[C@H]1C(=O)N[C@@H](CO)C(=O)N[C@@H](CO)C(=O)N[C@H](C(=O)N1CCC[C@H]1C(=O)N[C@H](C(=O)NCC(=O)N[C@@H](CO)C(=O)N[C@@H](CC(N)=O)C(=O)N[C@H](C(=O)N[C@@H](Cc1ccc(O)cc1)C(N)=O)[C@@H](C)O)C(C)C)[C@@H](C)O [Example 63] (H-K([γGlu-C20 diacid])CNTATCATQRLARFLRHSSPNFGAIPSSTPVGSNTY-NH2; disulfide 2-7 (inferred); N-terminus assumed)
- Ratio hCT/hAmylin binding [1, 4]: 157.1
- Ratio hCT/hAmylin binding [1, 5]: 157.1
- Ratio hCT/hAmylin binding [1, 6]: 157.1
- Ratio hCT/hAmylin binding [1, 7]: 157.1
- Ratio hCT/hAmylin binding [1, 8]: 157.1
- Ratio hCT/hAmylin binding [1, 9]: 157.1
- Ratio hCT/hAmylin binding [1, 10]: 157.1
- Ratio hCT/hAmylin funct. [2, 11]: 138.7
- Ratio hCT/hAmylin funct. [2, 12]: 138.7
- Ratio hCT/hAmylin funct. [2, 13]: 138.7
- IC50 (rat calcitonin receptor): 124 nM
- solubility at 18 h [3, 14]: ≥ 200 µM
- solubility at 18 h [3, 15]: ≥ 200 µM
- solubility at 18 h [3, 16]: ≥ 200 µM
- solubility at 18 h [3, 17]: ≥ 200 µM
- solubility at 18 h [3, 18]: ≥ 200 µM
- solubility at 18 h [3, 19]: ≥ 200 µM
- solubility at 18 h [3, 20]: ≥ 200 µM
- solubility at 18 h [3, 21]: ≥ 200 µM

SMILES: CC[C@H](C)[C@H](NC(=O)[C@H](C)NC(=O)CNC(=O)[C@H](Cc1ccccc1)NC(=O)[C@H](CC(N)=O)NC(=O)[C@@H]1CCCN1C(=O)[C@H](CO)NC(=O)[C@H](CO)NC(=O)[C@H](Cc1c[nH]cn1)NC(=O)[C@H](CCCNC(=N)N)NC(=O)[C@H](CC(C)C)NC(=O)[C@H](Cc1ccccc1)NC(=O)[C@H](CCC(=O)O)NC(=O)[C@H](C)NC(=O)[C@H](CC(C)C)NC(=O)[C@H](CCCNC(=N)N)NC(=O)[C@H](CCC(N)=O)NC(=O)[C@@H](NC(=O)[C@H](C)NC(=O)[C@@H]1CSSC[C@H](NC(=O)[C@H](CCCCN)NC(=O)CC[C@H](NC(=O)CCCCCCCCCCCCCCCCCCC(=O)O)C(=O)O)C(=O)N[C@@H](CC(N)=O)C(=O)N[C@@H]([C@@H](C)O)C(=O)N[C@@H](C)C(=O)N[C@@H]([C@@H](C)O)C(=O)N1)[C@@H](C)O)C(=O)N1CCC[C@H]1C(=O)N[C@@H](CO)C(=O)N[C@@H](CO)C(=O)N[C@H](C(=O)N[C@@H](CC(N)=O)C(=O)N[C@H](C(=O)NCC(=O)N[C@@H](CCCCN)C(=O)N[C@@H](CC(N)=O)C(=O)N[C@H](C(=O)N[C@@H](Cc1ccc(O)cc1)C(N)=O)[C@@H](C)O)C(C)C)[C@@H](C)O [Example 36] ({C20 diacid-γGlu}-KCNTATCATQRLAEFLRHSSPNFGAIPSSTNVGKNTY-NH2; disulfide 2-7 (inferred))
- Ratio hCT/hAmylin binding [1, 4]: 15.7
- Ratio hCT/hAmylin binding [1, 5]: 15.7
- Ratio hCT/hAmylin binding [1, 6]: 15.7
- Ratio hCT/hAmylin binding [1, 8]: 15.7
- Ratio hCT/hAmylin binding [1, 9]: 15.7
- Ratio hCT/hAmylin binding [1, 10]: 15.7
- Ratio hCT/hAmylin funct. [2, 11]: 6.8
- Ratio hCT/hAmylin funct. [2, 12]: 6.8
- Ratio hCT/hAmylin funct. [2, 13]: 6.8
- IC50 (rat calcitonin receptor): 60.1 nM
- solubility at 18 h [3, 14]: ≥ 200 µM
- solubility at 18 h [3, 15]: ≥ 200 µM
- solubility at 18 h [3, 16]: ≥ 200 µM
- solubility at 18 h [3, 17]: ≥ 200 µM
- solubility at 18 h [3, 18]: ≥ 200 µM
- solubility at 18 h [3, 19]: ≥ 200 µM
- solubility at 18 h [3, 20]: ≥ 200 µM
- solubility at 18 h [3, 21]: ≥ 200 µM

SMILES: CC[C@H](C)[C@H](NC(=O)[C@H](C)NC(=O)CNC(=O)[C@H](Cc1ccccc1)NC(=O)[C@H](CC(N)=O)NC(=O)[C@@H]1CCCN1C(=O)[C@H](CO)NC(=O)[C@H](CO)NC(=O)[C@H](Cc1c[nH]cn1)NC(=O)[C@H](CCCNC(=N)N)NC(=O)[C@H](CC(C)C)NC(=O)[C@H](Cc1ccccc1)NC(=O)[C@H](CC(N)=O)NC(=O)[C@H](C)NC(=O)[C@H](CC(C)C)NC(=O)[C@H](CCCNC(=N)N)NC(=O)[C@H](CCC(N)=O)NC(=O)[C@@H](NC(=O)[C@H](C)NC(=O)[C@@H]1CSSC[C@H](NC(=O)[C@@H](N)CCCCNC(=O)COCCOCCNC(=O)CCCCCCCCCCCCCCCCCCC(=O)O)C(=O)N[C@@H](CC(N)=O)C(=O)N[C@@H]([C@@H](C)O)C(=O)N[C@@H](C)C(=O)N[C@@H]([C@@H](C)O)C(=O)N1)[C@@H](C)O)C(=O)N1CCC[C@H]1C(=O)N[C@@H](CO)C(=O)N[C@@H](CO)C(=O)N[C@H](C(=O)N[C@@H](CC(N)=O)C(=O)N[C@H](C(=O)NCC(=O)N[C@@H](Cc1c[nH]cn1)C(=O)N[C@@H](CC(N)=O)C(=O)N[C@H](C(=O)N[C@@H](Cc1ccc(O)cc1)C(N)=O)[C@@H](C)O)C(C)C)[C@@H](C)O [Example 91]
- Ratio hCT/hAmylin binding [1, 4]: 100.8
- Ratio hCT/hAmylin binding [1, 5]: 100.8
- Ratio hCT/hAmylin binding [1, 6]: 100.8
- Ratio hCT/hAmylin binding [1, 7]: 100.8
- Ratio hCT/hAmylin binding [1, 8]: 100.8
- Ratio hCT/hAmylin binding [1, 9]: 100.8
- Ratio hCT/hAmylin binding [1, 10]: 100.8
- Ratio hCT/hAmylin funct. [2, 11]: 36.9
- Ratio hCT/hAmylin funct. [2, 12]: 36.9
- Ratio hCT/hAmylin funct. [2, 13]: 36.9
- IC50 (rat calcitonin receptor): 29.5 nM
- solubility at 18 h [3, 14]: ≥ 200 µM
- solubility at 18 h [3, 15]: ≥ 200 µM
- solubility at 18 h [3, 16]: ≥ 200 µM
- solubility at 18 h [3, 17]: ≥ 200 µM
- solubility at 18 h [3, 18]: ≥ 200 µM
- solubility at 18 h [3, 19]: ≥ 200 µM
- solubility at 18 h [3, 20]: ≥ 200 µM
- solubility at 18 h [3, 21]: ≥ 200 µM
